Literature values in patent US8481483B2, “Cyclosporin analogues” (priority 2009, dated 2013).

Assays:
cyclophilin A = cyclophilin A (Homo sapiens, UniProt P62937)
[1] = tested on: hepatitis C virus replication; details: Antiviral Research 65(3):A41 (2005)

Sequence of cyclophilin A (P62937 whole entry, species assumed): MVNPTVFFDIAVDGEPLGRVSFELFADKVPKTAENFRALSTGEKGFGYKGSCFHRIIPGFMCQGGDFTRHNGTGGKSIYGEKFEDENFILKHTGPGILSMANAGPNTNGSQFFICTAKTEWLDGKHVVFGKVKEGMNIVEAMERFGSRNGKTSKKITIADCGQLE

For `C/C=C/C[C@@H](C)[C@@H](O)[C@H]1C(=O)N[C@@H](CC)C(=O)N(C)[C@H](C)C(=O)N(CC)[C@@H](C(C)C)C(=O)N[C@@H](C(C)C)C(=O)N(C)[C@@H](CC(C)C)C(=O)N[C@@H](C)C(=O)N[C@H](C)C(=O)N(C)[C@@H](CC(C)C)C(=O)N(C)[C@@H](CC(C)C)C(=O)N(C)[C@@H](C(C)C)C(=O)N1C` [DEBIO-025], the “binding affinity for cyclophilin A” value (cyclophilin A) is given as “potent binding affinity” and the “inhibition of hepatitis C virus replication” value [1] is given as “potent and selective inhibition”.
